Data taken from US5981494A, “Use of glycosidase inhibitors” (University College London, priority 1997, dated 1999).

How the values were obtained:
[1] = α-galactosidase hydrolysis of p-nitrophenyl-α-D-galactopyranoside (αPNP-Gal); assay type: biochemical
Procedure: (§1) (One of 2 experiments) (A) Rate of reaction of 0.04 U/ml of α-galactosidase at 37° C. with p-nitrophenyl-α-D-galactopyranoside as substrate as determined over the first 3 mins. (B) Malaria toxin from P. yoelii diluted 1/10 and (C) 50 ng/ml of LPS were incubated overnight at 37° C. with 2 U/ml of α-galactosidase,then boiled and tested on macrophages for TNF induction, assayed by ELISA. (Means of duplicates).
The α-galactosidase hydrolysis of p-nitrophenyl-α-D-galactopyranoside (αPNP-Gal) is optimal at pH 6.0 (4, 9) and undetectable at pH 8.0 (9), as we confirmed, but enhancement of TNF-induction by malaria toxin was greatest at pH 8.0 (FIG. 2.). […] The degree of enhancement also varied with the concentration of LPS, and at higher concentrations enhancement was also detectable at pH 6.0.

[2] = β-galactosidase activity against βPNP-Gal; assay type: biochemical; details: pH 6.0; α-galactosidase preparations
Excerpt: This was supported by the observation of batch to batch variability and the fact that the stability of the TNF-enhancing activity differed from the αPNP-Gal activity. Although all enzyme preparations were first dialysed and adjusted to the same activity against αPNP-Gal, batches from different sources enhanced to different degrees (as illustrated in FIG. 1). […] Apart from BSA, all preparations contained 3 bands of 33 kD, 29 kD and 27 kD; 28 kD and 36.5 kD isoforms were previously described (4).

[3] = tested on: thioglycollate-induced peritoneal macrophages; test: TNF induction from thioglycollate-induced peritoneal macrophages (ELISA and L929 cytotoxicity bioassay); assay type: cell-based, murine
Procedure: Serial dilutions of an extract of parasitized RBC which (undiluted) induced 435 ng/ml of TNF as determined by ELISA and 30,400 U/ml in the bioassay were incubated at pH 8.0 at 37° C. overnight with a series of concentrations of α-galactosidase from Sigma or from Oxford Glycosystems, boiled, neutralised and then tested on macrophages for TNF induction by bioassay and ELISA (means of duplicates). The amount of TNF that would have been induced by the original undiluted extract was then calculated.
as §1
Mice bred at University College London ((CBA×Balb/c)F1 or CBA×C57B1) F1) were infected with P. yoelii YM or P. berghei ANKA. Parasitized RBC (1×10^8/ml)in Earle's Balanced Salt Solution (BSS; Life Technologies Ltd, Paisley, U.K.) were incubated at 37° C. overnight, then disrupted by freezing and thawing, digested overnight with 250 μg pronase E (Sigma) per mg of protein (determined by BioRad assay), boiled, treated with 25 μg/ml polymyxin B agarose (Sigma) to eliminate endotoxin, filtered through a 0.2-μm filter (Sartorius AG, Gottingen, Germany) and stored at 4° C. (24). TNF induction from thioglycollate-induced peritoneal macrophages and ELISA assays for murine TNF were described previously (24). Polymyxin B (5 μg/ml) was included in all experiments with malaria toxin to exclude effects from contaminating LPS. A more sensitive one-plate procedure for TNF production and assay was also used (5). Cytotoxicity assays for TNF were done using L929 cells (23). Green coffee bean α-D-galactosidase was obtained from 2 sources (Sigma, Poole, Dorset, UK and Oxford GlycoSystems Ltd, Abingdon, Oxford UK).

α-galactosidase: Green coffee bean α-D-galactosidase obtained from Sigma and Oxford GlycoSystems
pH optimum of hydrolysis of αPNP-Gal [1]: 6.0 pH | hydrolysis of αPNP-Gal at pH 8.0 ([1]; pH 8.0): undetectable | β-galactosidase activity against βPNP-Gal [2]: No β-galactosidase activity was detectable | TNF secretion of macrophages pre-treated with enzyme, then stimulated with toxin or LPS ([3]; 2 U/ml enzyme for 1 hr at 37° C., then toxin or 2 or 10 ng/ml LPS): did not secrete more TNF than untreated cells | TNF induction from macrophages incubated with enzyme only ([3]; 2 U/ml enzyme only): No TNF was induced | increase in potency of LPS in stimulating the release of TNFα from macrophages ([3]; bacterial derived LPS treated with the enzyme): 10-100 fold | enhancement of TNF induction with boiled enzyme ([3]; boiled enzyme): no enhancement occurred | enhancement of TNF induction by malaria toxin (extracts of infected RBC) pre-treated with enzyme ([3]; extracts of RBC infected with P. yoelii or P. berghei): Significant increase in TNF-induction | pH of greatest enhancement of TNF-induction by malaria toxin ([3]; overnight at 37° C. with 2 U/ml enzyme): 8.0 pH | enhancement of TNF-inducing activity of LPS ([3]; similar pH profile to the toxin): also enhanced | stability of TNF-enhancing capacity on storage ([3]; storage at 4° C.): deteriorated
